Tests used:
Adenosine receptor A3 [1] = target: T1, Adenosine receptor A3 (Homo sapiens, UniProt P0DMS8); test: Displacement of [3H]HEMADO from human adenosine receptor A3 expressed in CHO cell membranes by radioligand competition assay
T1 sequence (P0DMS8 whole entry): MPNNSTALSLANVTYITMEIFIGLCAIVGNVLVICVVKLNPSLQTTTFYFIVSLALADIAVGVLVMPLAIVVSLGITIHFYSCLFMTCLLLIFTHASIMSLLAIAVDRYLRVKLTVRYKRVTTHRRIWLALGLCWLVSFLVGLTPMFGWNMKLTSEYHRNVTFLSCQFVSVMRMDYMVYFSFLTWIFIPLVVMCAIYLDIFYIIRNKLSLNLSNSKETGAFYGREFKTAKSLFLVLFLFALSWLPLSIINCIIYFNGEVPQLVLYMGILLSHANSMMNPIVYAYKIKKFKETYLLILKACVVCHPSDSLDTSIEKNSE

Adenosine receptor A2b [2] = target: T2, Adenosine receptor A2b (Homo sapiens, UniProt P29275); test: Antagonist activity at human adenosine receptor A2B expressed in CHO cells assessed as inhibition of NECA-stimulated adenylyl cyclase activity
T2 sequence (P29275 whole entry): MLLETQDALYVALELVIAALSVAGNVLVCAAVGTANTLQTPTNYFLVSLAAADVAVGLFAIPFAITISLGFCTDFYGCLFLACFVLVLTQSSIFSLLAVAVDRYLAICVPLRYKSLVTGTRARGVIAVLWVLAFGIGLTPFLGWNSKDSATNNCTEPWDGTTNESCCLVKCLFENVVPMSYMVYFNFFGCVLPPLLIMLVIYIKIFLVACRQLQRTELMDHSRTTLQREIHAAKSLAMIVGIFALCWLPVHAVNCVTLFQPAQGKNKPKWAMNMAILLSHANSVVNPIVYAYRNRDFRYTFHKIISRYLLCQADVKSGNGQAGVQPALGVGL

Adenosine receptor A3 [3] = target: T1, Adenosine receptor A3; test: Antagonist activity at human adenosine receptor A3 expressed in CHO cells assessed as suppression of NECA-induced decrease of cAMP accumulation by Glo-sensor cAMP assay; format: functional, cell-based
Adenosine receptor A2b [4] = target: T2, Adenosine receptor A2b; test: Antagonist activity at human adenosine receptor A2B expressed in CHO cells assessed as inhibition of NECA-stimulated adenylyl cyclase activity; remark: listed apart in the source
Adenosine receptor A1 = target: T3, Adenosine receptor A1 (Homo sapiens, UniProt P30542); test: Displacement of [3H]CCPA from human adenosine receptor A1 expressed in CHO cell membranes by radioligand competition assay
T3 sequence (P30542 whole entry): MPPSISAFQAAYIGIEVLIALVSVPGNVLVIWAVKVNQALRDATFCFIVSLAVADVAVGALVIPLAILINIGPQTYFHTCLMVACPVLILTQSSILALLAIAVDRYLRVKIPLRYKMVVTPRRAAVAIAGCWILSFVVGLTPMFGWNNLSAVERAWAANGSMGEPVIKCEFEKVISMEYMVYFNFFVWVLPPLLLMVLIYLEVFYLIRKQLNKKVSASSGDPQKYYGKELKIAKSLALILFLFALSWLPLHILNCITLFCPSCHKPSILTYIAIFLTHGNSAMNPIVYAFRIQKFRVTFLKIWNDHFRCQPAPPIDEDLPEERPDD

Adenosine receptor A2a = Adenosine receptor A2a (Homo sapiens, UniProt P29274); test: Displacement of [3H]NECA from human adenosine receptor A2A expressed in CHO cell membranes by radioligand competition assay
Chain of Adenosine receptor A2a (P29274 whole entry): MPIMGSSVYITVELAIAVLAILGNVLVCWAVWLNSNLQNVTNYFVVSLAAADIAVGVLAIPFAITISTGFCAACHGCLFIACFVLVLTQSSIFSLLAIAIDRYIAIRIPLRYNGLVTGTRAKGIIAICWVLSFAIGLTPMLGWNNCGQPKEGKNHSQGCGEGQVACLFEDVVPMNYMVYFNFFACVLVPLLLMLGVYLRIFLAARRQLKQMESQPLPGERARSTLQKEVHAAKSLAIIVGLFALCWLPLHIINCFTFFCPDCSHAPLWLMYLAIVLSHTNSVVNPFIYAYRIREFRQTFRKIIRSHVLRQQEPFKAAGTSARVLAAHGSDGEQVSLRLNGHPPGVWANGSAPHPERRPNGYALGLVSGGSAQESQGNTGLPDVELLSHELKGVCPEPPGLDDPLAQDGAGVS

| Structure (SMILES) | Ki (Adenosine receptor A3 [1]) [µM] | Ki (Adenosine receptor A2b [2]) [µM] | IC50 (Adenosine receptor A3 [3]) [µM] | IC50 (Adenosine receptor A2b [4]) [µM] | Ki (Adenosine receptor A1) [µM] | Ki (Adenosine receptor A2a) [µM] |
| --- | --- | --- | --- | --- | --- | --- |
| COc1ccc(-c2cc3cccc(OC)c3oc2=O)cc1 | 5.06 | > 30 | 25.3 | > 30 | > 100 | > 100 |
| CCOc1cccc2cc(-c3ccccc3)c(=O)oc12 | 22.5 | > 30 |  | > 30 | 22.1 | 55 |
| CCOc1cccc2cc(-c3ccc(OC)cc3)c(=O)oc12 | 5.32 | > 30 | 29.5 | > 30 | > 100 | > 100 |
| O=c1oc2c(O)cccc2cc1-c1ccccc1 | 5.09 | > 30 |  | > 30 | 4.62 | 42.3 |
| Cc1cccc2cc(-c3cc(O)c(O)c(O)c3)c(=O)oc12 | 14.3 | > 30 |  | > 30 | 14.7 | > 100 |
| O=c1oc2c(O)cccc2cc1-c1ccc(O)c(O)c1 | 23.6 | > 30 |  | > 30 | 6.2 | 14 |
| O=c1oc2c(O)c(O)ccc2cc1-c1ccc(O)c(O)c1 | 8.5 | > 30 |  | > 30 | 6.28 | 25.5 |
| O=c1oc2c(O)c(O)ccc2cc1-c1ccccc1 | 3.85 | > 30 |  | > 30 | 2.4 | 12.1 |
| CC(=O)Oc1cccc2cc(-c3ccccc3)c(=O)oc12 | 6.86 | > 30 |  | > 30 | 6.93 | 35.7 |
| CC(=O)Oc1ccc(-c2cc3ccc(OC(C)=O)c(OC(C)=O)c3oc2=O)cc1OC(C)=O | 23.4 | > 30 |  | > 30 | > 100 | > 100 |
| CC(=O)COc1cccc2cc(-c3ccccc3)c(=O)oc12 | 7.06 | > 30 |  |  | 10.4 | 16.1 |
| CC(=O)COc1cccc2cc(-c3ccc(C)cc3)c(=O)oc12 | 0.634 | > 30 |  |  | > 100 | > 100 |
| O=c1oc2c(O)cccc2cc1-c1ccc(Br)cc1 |  | > 30 |  | > 30 | > 100 | > 100 |
| COc1cccc2cc(-c3ccc([N+](=O)[O-])cc3)c(=O)oc12 | 8.02 | > 30 |  | > 30 | > 100 | 59.1 |
| CC(=O)Oc1ccc(-c2cc3cccc(OC(C)=O)c3oc2=O)cc1OC(C)=O | 22 | > 30 |  | > 30 | > 100 | 64.4 |
| CCOc1cccc2cc(-c3cc(OC)c(OC)c(OC)c3)c(=O)oc12 | 9.05 | > 30 |  | > 30 | > 100 | > 100 |
| Cc1ccc(-c2cc3cccc(C)c3oc2=O)cc1 | 16.6 | > 30 |  | > 30 | > 100 | > 100 |
| CC(=O)Oc1ccc(-c2cc3ccc(OC(C)=O)c(OC(C)=O)c3oc2=O)cc1 | 6.14 | > 30 |  | > 30 | > 100 | > 100 |
| CCOc1cccc2cc(-c3ccc([N+](=O)[O-])cc3)c(=O)oc12 | > 100 | > 30 |  | > 30 | > 100 | > 100 |
| CC(=O)COc1cccc2cc(-c3ccc(Br)cc3)c(=O)oc12 | > 30 | > 30 |  |  | > 100 | > 100 |
| CC(=O)Oc1ccc2cc(-c3ccccc3)c(=O)oc2c1OC(C)=O | 5.17 | > 30 |  | > 30 | 8.56 | 21.1 |
| CCOc1cccc2cc(-c3ccc(OC)c(OC)c3)c(=O)oc12 | 13.7 | > 30 |  | > 30 | > 100 | > 100 |
| O=c1oc2c(O)c(O)ccc2cc1-c1ccc(O)cc1 | 9.16 | > 30 |  | > 30 | 12.5 | 55.3 |
| COc1ccc(-c2cc3cccc(C)c3oc2=O)cc1OC | 13.6 | > 30 |  | > 30 | > 100 | 25.9 |
| Cc1cccc2cc(-c3ccc([N+](=O)[O-])cc3)c(=O)oc12 | > 100 | > 30 |  | > 30 | > 100 | > 100 |
| CCOc1cccc2cc(-c3ccc(C)cc3)c(=O)oc12 | 3.93 | > 30 | 18.4 | > 30 | > 100 | > 60 |
| COc1cc(-c2cc3cccc(C)c3oc2=O)cc(OC)c1OC | 9.82 | > 30 |  | > 30 | > 60 | 32.9 |
| CCOc1cccc2cc(-c3ccc(OC)cc3OC)c(=O)oc12 | 16.6 | > 30 |  | > 30 | > 100 | > 100 |
| CCOc1cccc2cc(-c3ccc(Br)cc3)c(=O)oc12 | > 100 | > 30 |  | > 30 | > 100 | > 100 |
| Cc1cccc2cc(-c3ccccc3)c(=O)oc12 | 17 | > 30 |  | > 30 | 14.8 | 42.1 |
